Values of other authors in patent US10864304B2, “Anti-infective antimicrobial-containing biomaterials” (ATRIUM MEDICAL CORPORATION, priority 2009, dated 2020).

Tested on: bacteria
Details: previously reported (K. C. Chaw et al. 2005)

In the case of `[Ag]` [silver], the “amount of silver needed to produce an antimicrobial effect” value is given as about 50 ppb.
